{
  "source": "ChEMBL document CHEMBL3886662",
  "about": "“Acid addition salt of substituted pyridine compound” (2016)",
  "molecular_target": "T1, Cholesteryl ester transfer protein (Homo sapiens, UniProt P11597)",
  "T1 sequence (P11597 whole entry)": "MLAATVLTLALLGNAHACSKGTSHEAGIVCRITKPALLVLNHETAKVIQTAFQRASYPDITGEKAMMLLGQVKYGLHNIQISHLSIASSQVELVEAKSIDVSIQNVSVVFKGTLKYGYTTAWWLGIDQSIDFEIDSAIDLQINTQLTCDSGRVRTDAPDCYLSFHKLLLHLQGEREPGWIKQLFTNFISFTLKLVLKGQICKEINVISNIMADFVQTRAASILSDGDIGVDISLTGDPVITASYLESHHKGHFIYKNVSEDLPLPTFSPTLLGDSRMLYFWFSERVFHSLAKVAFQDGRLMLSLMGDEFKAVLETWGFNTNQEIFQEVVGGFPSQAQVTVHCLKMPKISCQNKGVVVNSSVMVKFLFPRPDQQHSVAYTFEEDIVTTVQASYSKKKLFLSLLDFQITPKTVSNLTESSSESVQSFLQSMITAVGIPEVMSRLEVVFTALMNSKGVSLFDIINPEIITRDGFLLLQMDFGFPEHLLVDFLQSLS",
  "experiment": "CETP Inhibition Assay: A recombinant human CETP protein (manufactured by Roar Biomedical Inc.; 4.5 ng), the acceptor lipoprotein described in (2) above (32.5 μg) and 5,5'-dithio-bis-(2-nitrobenzoic acid) (7 mM, 15 μl) were taken in a 96 well plate and the total amount of the mixture was adjusted to 48.5 μl with the PBS solution. The test compound [DMSO solution (concentration: 0.15, 0.5, 1.5, 5, 15, 50, 150 and 500 μM); 1.5 μl] was added to each well and the mixture was incubated in a thermostatic bath at 37 °C. for 60 minutes. The reconstituted HDL (50 μl) described in (1) above was added to each well and the mixture was reacted in a thermostatic bath at 37 °C. for 60 minutes. The 96 well plate was moved onto ice and a precipitation reagent [a mixed solution of magnesium chloride (60 mM) and 0.1% dextran sulfate[1/1(v/v)]; 15 μl] was added to each well, and then the mixture was allowed to stand on ice for 15 minutes. The reaction solution (80 μl) in each well was moved to a filter plate and centrifuged at 1500 rpm for 1 minute, and the filtrate which passed through the filter was designated as the HDL fraction and the radioactivity thereof was measured with a scintillation counter.",
  "note": "Values joined by “and” are separate entries in the source; they are usually repeats but may differ in a detail not shown here. Identical values can stand only once.",
  "data": [
    {"compound": "CC(C)(O)CCOc1cnc(N2CCC(c3nc4c(c(C5CCC(F)(F)CC5)c3[C@@H](F)c3ccc(C(F)(F)F)cc3)[C@@H](O)CC(C)(C)C4)CC2)nc1", "values": [
      {"measurement": "IC50", "result": "17.8 nM and 21.3 nM"}
    ]}
  ]
}
